Laboratory results: PMC9697198, “Carbonic Anhydrase Inhibition Activities of Schiff’s Bases Based on Quinazoline-Linked Benzenesulfonamide” (Molecules, 2022)

How the values were obtained:
hCA XII = hCA XII (Homo sapiens, UniProt O43570); test: hCA XII inhibition, stopped-flow assay; format: biochemical; conditions: for Selectivity Analysis hCA I/XII / Selectivity Analysis hCA II/XII: selectivity index (SI); for Selectivity Analysis hCA I/XII: ratio of Ki hCA I to Ki hCA XII; for Selectivity Analysis hCA II/XII: ratio of Ki hCA II to Ki hCA XII; for Ki: stopped-flow technique, mean from three different assays, errors ±5–10%
hCA IX = hCA IX (Homo sapiens, UniProt Q16790); test: hCA IX inhibition, stopped-flow assay; format: biochemical; conditions: for Selectivity Analysis hCA I/IX / Selectivity Analysis hCA II/IX: selectivity index (SI); for Selectivity Analysis hCA I/IX: ratio of Ki hCA I to Ki hCA IX; for Selectivity Analysis hCA II/IX: ratio of Ki hCA II to Ki hCA IX; for Ki: stopped-flow technique, mean from three different assays, errors ±5–10%
hCA II = hCA II (Homo sapiens, UniProt P00918); test: hCA II inhibition, stopped-flow assay; format: biochemical; conditions: stopped-flow technique; mean from three different assays, errors ±5–10%
hCA I = hCA I (Homo sapiens, UniProt P00915); test: hCA I inhibition, stopped-flow assay; format: biochemical; conditions: stopped-flow technique; mean from three different assays, errors ±5–10%
Chain of hCA I (P00915 whole entry): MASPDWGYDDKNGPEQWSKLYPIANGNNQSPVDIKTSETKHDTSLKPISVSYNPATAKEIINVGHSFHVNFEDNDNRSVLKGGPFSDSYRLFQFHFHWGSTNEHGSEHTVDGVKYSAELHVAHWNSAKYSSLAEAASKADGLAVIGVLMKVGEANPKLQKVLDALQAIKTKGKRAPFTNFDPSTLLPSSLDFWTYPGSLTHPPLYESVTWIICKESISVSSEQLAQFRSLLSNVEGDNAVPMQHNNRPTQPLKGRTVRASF

Chain of hCA XII (O43570 25-354): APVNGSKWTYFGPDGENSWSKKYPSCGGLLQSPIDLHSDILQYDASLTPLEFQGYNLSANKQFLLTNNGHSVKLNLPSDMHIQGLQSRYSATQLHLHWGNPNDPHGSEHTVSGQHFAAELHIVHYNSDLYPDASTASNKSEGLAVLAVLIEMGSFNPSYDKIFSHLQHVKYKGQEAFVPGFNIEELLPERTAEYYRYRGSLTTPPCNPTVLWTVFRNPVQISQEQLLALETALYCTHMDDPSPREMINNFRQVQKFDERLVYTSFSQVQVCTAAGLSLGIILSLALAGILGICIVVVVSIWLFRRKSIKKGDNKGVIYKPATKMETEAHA

With `CC(=NNC(=O)CSc1nc2ccccc2c(=O)n1CCc1ccc(S(N)(=O)=O)cc1)c1ccccc1N` [Compound 18, 4-(2-(2-((2-(2-(1-(2-Aminophenyl)ethylidene)hydrazineyl)-2-oxoethyl)thio)-4-oxoquinazolin-3(4H)-yl)ethyl)benzenesulfonamide] as the molecule, how does the “Selectivity Analysis hCA I/XII” value (hCA XII) read?
The value was 45.04.

And the “Selectivity Analysis hCA II/XII” value (hCA XII)?
The value was 1.92.

And the Ki (hCA XII)?
Its Ki is 18.3 nM.

What about the “Selectivity Analysis hCA I/IX” value (hCA IX) of the same molecule?
Its value is 22.46.

What about the “Selectivity Analysis hCA II/IX” value (hCA IX) of the same molecule?
Its value is 0.96.

What about the Ki (hCA IX) of the same molecule?
The Ki was 36.7 nM.

And the Ki (hCA II)?
The Ki was 35.2 nM.

What about the Ki (hCA I) of the same molecule?
Its Ki is 824 nM.

And the melting point?
Its melting point is 264 to 265 °C.

Which “Selectivity Analysis hCA I/XII” value (hCA XII) does the source give for `CC(=NNC(=O)CSc1nc2ccccc2c(=O)n1CCc1ccc(S(N)(=O)=O)cc1)c1ccc(N)cc1` [Compound 19, 4-(2-(2-((2-(2-(1-(4-Aminophenyl)ethylidene)hydrazineyl)-2-oxoethyl)thio)-4-oxoquinazolin-3(4H)-yl)ethyl)benzenesulfonamide] here?
The value was 27.64.

And the “Selectivity Analysis hCA II/XII” value (hCA XII)?
The value was 3.72.

And the Ki (hCA XII)?
Its Ki is 15.9 nM.

What about the “Selectivity Analysis hCA I/IX” value (hCA IX) of the same molecule?
The value was 75.77.

And the “Selectivity Analysis hCA II/IX” value (hCA IX)?
The value was 10.22.

What about the Ki (hCA IX) of the same molecule?
Its Ki is 5.8 nM.

What about the Ki (hCA II) of the same molecule?
The Ki was 59.3 nM.

What about the Ki (hCA I) of the same molecule?
The Ki was 439 nM.

And the melting point?
Its melting point is 308 to 309 °C.

What does the source list for `CC(=NNC(=O)CSc1nc2ccccc2c(=O)n1CCc1ccc(S(N)(=O)=O)cc1)c1ccc(Br)cc1` [Compound 20, 4-(2-(2-((2-(2-(1-(4-Bromophenyl)ethylidene)hydrazineyl)-2-oxoethyl)thio)-4-oxoquinazolin-3(4H)-yl)ethyl)benzenesulfonamide]?
Selectivity Analysis hCA I/XII (hCA XII): 15.27; Selectivity Analysis hCA II/XII (hCA XII): 7.86; Ki (hCA XII): 88.8 nM; Selectivity Analysis hCA I/IX (hCA IX): 13.6; Selectivity Analysis hCA II/IX (hCA IX): 7.01; Ki (hCA IX): 99.6 nM; Ki (hCA II): 698 nM; Ki (hCA I): 1360 nM; melting point: 302 to 303 °C

Which results are given for `CC(=NNC(=O)CSc1nc2ccccc2c(=O)n1CCc1ccc(S(N)(=O)=O)cc1)c1ccccc1Cl` [Compound 21, 4-(2-(2-((2-(2-(1-(2-Chlorophenyl)ethylidene)hydrazineyl)-2-oxoethyl)thio)-4-oxoquinazolin-3(4H)-yl)ethyl)benzenesulfonamide]?
Selectivity Analysis hCA I/XII (hCA XII): 19.74; Selectivity Analysis hCA II/XII (hCA XII): 5.59; Ki (hCA XII): 58 nM; Selectivity Analysis hCA I/IX (hCA IX): 25.27; Selectivity Analysis hCA II/IX (hCA IX): 7.15; Ki (hCA IX): 45.3 nM; Ki (hCA II): 324 nM; Ki (hCA I): 1140 nM; melting point: 273 to 275 °C

Which “Selectivity Analysis hCA I/XII” value (hCA XII) does the source give for `CC(=NNC(=O)CSc1nc2ccccc2c(=O)n1CCc1ccc(S(N)(=O)=O)cc1)c1cccc(Cl)c1` [Compound 22, 4-(2-(2-((2-(2-(1-(3-Chlorophenyl)ethylidene)hydrazineyl)-2-oxoethyl)thio)-4-oxoquinazolin-3(4H)-yl)ethyl)benzenesulfonamide] here?
Its value is 18.49.

What about the “Selectivity Analysis hCA II/XII” value (hCA XII) of the same molecule?
Its value is 7.23.

What about the Ki (hCA XII) of the same molecule?
The Ki was 46.9 nM.

What about the “Selectivity Analysis hCA I/IX” value (hCA IX) of the same molecule?
The value was 11.51.

What about the “Selectivity Analysis hCA II/IX” value (hCA IX) of the same molecule?
Its value is 4.50.

And the Ki (hCA IX)?
The Ki was 75.3 nM.

What about the Ki (hCA II) of the same molecule?
The Ki was 339 nM.

And the Ki (hCA I)?
Its Ki is 867 nM.

And the melting point?
Its melting point is 297 to 298 °C.

For `CC(=NNC(=O)CSc1nc2ccccc2c(=O)n1CCc1ccc(S(N)(=O)=O)cc1)c1ccc(Cl)cc1` [Compound 23, 4-(2-(2-((2-(2-(1-(4-Chlorophenyl)ethylidene)hydrazineyl)-2-oxoethyl)thio)-4-oxoquinazolin-3(4H)-yl)ethyl)benzenesulfonamide], which “Selectivity Analysis hCA II/XII” value (hCA XII) is on record?
Its value is 2.56.

What about the Ki (hCA XII) of the same molecule?
The Ki was 61.2 nM.

And the “Selectivity Analysis hCA I/IX” value (hCA IX)?
The value was 8.67.

And the “Selectivity Analysis hCA II/IX” value (hCA IX)?
Its value is 2.41.

What about the Ki (hCA IX) of the same molecule?
The Ki was 65 nM.

And the Ki (hCA II)?
Its Ki is 157 nM.

What about the Ki (hCA I) of the same molecule?
Its Ki is 563 nM.

What about the melting point of the same molecule?
Its melting point is 278 to 280 °C.

What does the source list for `CC(=NNC(=O)CSc1nc2ccccc2c(=O)n1CCc1ccc(S(N)(=O)=O)cc1)c1ccc(F)cc1` [Compound 24, 4-(2-(2-((2-(2-(1-(4-Fluorophenyl)ethylidene)hydrazineyl)-2-oxoethyl)thio)-4-oxoquinazolin-3(4H)-yl)ethyl)benzenesulfonamide]?
Selectivity Analysis hCA I/XII (hCA XII): 7.35; Selectivity Analysis hCA II/XII (hCA XII): 1.55; Ki (hCA XII): 25.4 nM; Selectivity Analysis hCA I/IX (hCA IX): 6.55; Selectivity Analysis hCA II/IX (hCA IX): 1.38; Ki (hCA IX): 28.5 nM; Ki (hCA II): 39.5 nM; Ki (hCA I): 187 nM; melting point: 299 to 300 °C

Which results are given for `CC(=NNC(=O)CSc1nc2ccccc2c(=O)n1CCc1ccc(S(N)(=O)=O)cc1)c1ccc(C)cc1` [Compound 25, 4-(2-(4-Oxo-2-((2-oxo-2-(2-(1-(p-tolyl)ethylidene)hydrazineyl)ethyl)thio)quinazolin-3(4H)-yl)ethyl)benzenesulfonamide]?
Selectivity Analysis hCA I/XII (hCA XII): 10.90; Selectivity Analysis hCA II/XII (hCA XII): 2.19; Ki (hCA XII): 57.5 nM; Selectivity Analysis hCA I/IX (hCA IX): 14.28; Selectivity Analysis hCA II/IX (hCA IX): 2.87; Ki (hCA IX): 43.9 nM; Ki (hCA II): 126 nM; Ki (hCA I): 627 nM; melting point: 288 to 290 °C

Which “Selectivity Analysis hCA I/XII” value (hCA XII) does the source give for `CC(=NNC(=O)CSc1nc2ccccc2c(=O)n1CCc1ccc(S(N)(=O)=O)cc1)c1ccccn1` [Compound 26, 4-(2-(4-Oxo-2-((2-oxo-2-(2-(1-(pyridin-2-yl)ethylidene)hydrazineyl)ethyl)thio)quinazolin-3(4H)-yl)ethyl)benzenesulfonamide] here?
The value was 1.85.

What about the “Selectivity Analysis hCA II/XII” value (hCA XII) of the same molecule?
Its value is 0.80.

What about the Ki (hCA XII) of the same molecule?
The Ki was 28.5 nM.

What about the “Selectivity Analysis hCA I/IX” value (hCA IX) of the same molecule?
The value was 0.77.

What about the “Selectivity Analysis hCA II/IX” value (hCA IX) of the same molecule?
The value was 0.33.

What about the Ki (hCA IX) of the same molecule?
The Ki was 68.2 nM.

And the Ki (hCA II)?
The Ki was 22.8 nM.

What about the Ki (hCA I) of the same molecule?
Its Ki is 52.8 nM.

What about the melting point of the same molecule?
Its melting point is 300 to 301 °C.
